Experiment [1] has as its target T1, Sterol O-acyltransferase 1 (Homo sapiens) (UniProt P35610).
T1 sequence (whole entry): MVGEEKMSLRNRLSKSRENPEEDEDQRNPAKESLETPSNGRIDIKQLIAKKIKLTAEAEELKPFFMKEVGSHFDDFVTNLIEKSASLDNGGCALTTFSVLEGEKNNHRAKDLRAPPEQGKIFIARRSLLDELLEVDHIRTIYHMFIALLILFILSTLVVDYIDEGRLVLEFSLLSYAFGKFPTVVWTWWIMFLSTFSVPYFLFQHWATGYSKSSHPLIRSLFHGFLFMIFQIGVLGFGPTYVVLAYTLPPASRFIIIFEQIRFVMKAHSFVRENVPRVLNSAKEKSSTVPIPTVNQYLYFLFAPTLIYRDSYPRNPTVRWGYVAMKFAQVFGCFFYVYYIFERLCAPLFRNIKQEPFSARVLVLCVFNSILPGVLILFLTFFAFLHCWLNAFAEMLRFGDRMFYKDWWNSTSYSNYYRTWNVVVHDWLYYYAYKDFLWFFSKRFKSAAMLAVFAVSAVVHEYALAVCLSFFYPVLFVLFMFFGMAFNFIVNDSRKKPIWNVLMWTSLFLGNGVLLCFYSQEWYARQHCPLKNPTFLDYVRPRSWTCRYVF
The experiment is described as follows: Inhibition of ACAT at 0.2 mg/mL.

Experiment [2] addresses T1, Sterol O-acyltransferase 1 (Homo sapiens). The experiment is described as follows: Inhibition of ACAT at 1 mg/mL.
For experiment [3] the target is unchanged. The experiment is described as follows: Inhibition of ACAT at 0.05 mg/mL.

Each structure is given as a SMILES string. Active and inactive are the calls of the source. The rule behind the calls is not given here.

As usually defined, the inhibition is the drop in the measured response relative to a control, in per cent. Low values mean a weak effect, high ones a strong effect. On to `C[C@@H]1O[C@@H](O[C@H]2[C@H](O[C@H]3CC[C@]4(C)[C@H]5CC=C6[C@H]7[C@](C(=O)O[C@@H]8O[C@H](CO)[C@@H](O)[C@H](O)[C@H]8O)(CC[C@@H](C)[C@@]7(C)O)CC[C@@]6(C)[C@]5(C)CC[C@H]4C3(C)C)OC[C@H](O)[C@@H]2O[C@@H]2O[C@H](CO)[C@@H](O)[C@H](O)[C@H]2O)[C@H](O)[C@H](O)[C@H]1O`, for which the inhibition in experiment [1] is 10.3%; in experiment [2], 31.8%; in experiment [3] it was 10.9%.
As for `C[C@@H]1O[C@@H](O[C@H]2[C@H](O[C@H]3CC[C@]4(C)[C@H]5CC=C6[C@@H]7CC(C)(C)CC[C@]7(C(=O)O[C@@H]7O[C@H](CO)[C@@H](O)[C@H](O)[C@H]7O)CC[C@@]6(C)[C@]5(C)CC[C@H]4C3(C)C)OC[C@H](O)[C@@H]2O[C@@H]2O[C@H](CO)[C@@H](O)[C@H](O)[C@H]2O)[C@H](O)[C@H](O)[C@H]1O`, the result in experiment [1] was inactive. Moreover, the inhibition was found to be 25.4% in experiment [2] and 31.7% in experiment [3].
Regarding `C[C@@H]1CC[C@]2(C(=O)O[C@@H]3O[C@H](CO)[C@@H](O)[C@H](O)[C@H]3O)CC[C@]3(C)C(=CC[C@@H]4[C@@]5(C)CC[C@H](O[C@H]6O[C@@H](C(=O)O)[C@H](O)[C@@H](O)[C@@H]6O)C(C)(C)[C@@H]5CC[C@]43C)[C@@H]2[C@]1(C)O`, the result in experiment [1] was inactive. Moreover, in experiment [2], the inhibition is 12.5%.
As to `C[C@@H]1O[C@@H](O[C@H]2[C@H](O[C@H]3CC[C@]4(C)[C@H]5[C@@H](O)CC6=C7[C@]8(CC[C@](C)(OC8=O)[C@@]7(C)O)CC[C@@]6(C)[C@]5(C)CC[C@H]4C3(C)C)OC[C@H](O)[C@@H]2O[C@@H]2O[C@H](CO)[C@@H](O)[C@H](O)[C@H]2O[C@@H]2O[C@H](CO)[C@@H](O)[C@H](O)[C@H]2O)[C@H](O)[C@H](O)[C@H]1O`, the result in experiment [1], in experiment [2] and in experiment [3] was inactive.
Take `CC1(C)[C@@H](O[C@@H]2OC[C@H](O)[C@H](O)[C@H]2O[C@@H]2O[C@H](CO)[C@@H](O)[C@H](O)[C@H]2O)CC[C@]2(C)[C@H]3C[C@@H](O)C4=C5[C@]6(CC[C@](C)(OC6=O)[C@@]5(C)O)CC[C@@]4(C)[C@]3(C)CC[C@@H]12`: the result in experiment [1] was inactive. Further, the inhibition in experiment [2] came out at 24.1%.
With `C[C@@H]1CC[C@]2(C(=O)O[C@@H]3O[C@H](CO)[C@@H](O)[C@H](O)[C@H]3O)CC[C@]3(C)C(=CC[C@@H]4[C@@]5(C)CC[C@H](O[C@@H]6OC[C@H](O)[C@H](O)[C@H]6O)[C@@](C)(CO)[C@@H]5CC[C@]43C)[C@@H]2[C@]1(C)O`, the outcome in experiment [1] and in experiment [3] was inactive. The same compound returned an inhibition in experiment [2] of 18.9%.
On to `C[C@@H]1O[C@@H](O[C@H]2[C@H](O[C@H]3CC[C@]4(C)[C@H]5CC=C6[C@H]7[C@](C(=O)O[C@@H]8O[C@H](CO)[C@@H](O)[C@H](O)[C@H]8O)(CC[C@@H](C)[C@@]7(C)O)CC[C@@]6(C)[C@]5(C)CC[C@H]4C3(C)C)OC[C@H](O)[C@@H]2O)[C@H](O)[C@H](O)[C@H]1O`, for which the result in experiment [1] and in experiment [3] was inactive. The same compound yielded an inhibition in experiment [2] of 72.8%.
On to `C[C@@H]1O[C@@H](O[C@H]2[C@H](O[C@H]3CC[C@]4(C)[C@H]5CC=C6[C@H]7[C@]8(CC[C@](C)(OC8=O)[C@@]7(C)O)CC[C@@]6(C)[C@]5(C)CC[C@H]4C3(C)C)OC[C@H](O)[C@@H]2O[C@@H]2O[C@H](CO)[C@@H](O)[C@H](O)[C@H]2O[C@@H]2O[C@H](CO)[C@@H](O)[C@H](O)[C@H]2O)[C@H](O)[C@H](O)[C@H]1O`, for which the outcome in experiment [1], in experiment [2] and in experiment [3] was inactive.
Consider `C[C@@H]1O[C@@H](O[C@H]2[C@H](OC(=O)[C@]34CCC(C)(C)[C@@H](O)[C@H]3C3=CC[C@@H]5[C@@]6(C)CC[C@H](O[C@@H]7OC[C@H](O)[C@H](O[C@@H]8O[C@H](CO)[C@@H](O)[C@H](O)[C@H]8O)[C@H]7O[C@@H]7O[C@@H](C)[C@H](O)[C@@H](O)[C@H]7O)C(C)(C)[C@@H]6CC[C@@]5(C)[C@]3(C)CC4)O[C@H](CO)[C@@H](O)[C@@H]2O)[C@H](O)[C@H](O)[C@H]1O`, for which the result in experiment [1], in experiment [2] and in experiment [3] was inactive.
For the compound `C[C@@H]1O[C@@H](O[C@H]2[C@H](OC(=O)[C@]34CC[C@@H](C)[C@@](C)(O)[C@H]3C3=CC[C@@H]5[C@@]6(C)CC[C@H](O[C@@H]7OC[C@H](O)[C@H](O[C@@H]8O[C@H](CO)[C@@H](O)[C@H](O)[C@H]8O)[C@H]7O[C@@H]7O[C@@H](C)[C@H](O)[C@@H](O)[C@H]7O)C(C)(C)[C@@H]6CC[C@@]5(C)[C@]3(C)CC4)O[C@H](CO)[C@@H](O)[C@@H]2O)[C@H](O)[C@H](O)[C@H]1O`, in experiment [1], the inhibition came to 10.6%. The result in experiment [2] and in experiment [3] was inactive.
As for `C[C@@H]1CC[C@]2(C(=O)O[C@@H]3O[C@H](CO)[C@@H](O)[C@H](O)[C@H]3O)CC[C@]3(C)C(=CC[C@@H]4[C@@]5(C)CC[C@H](O[C@@H]6OC[C@H](O)[C@H](O[C@@H]7O[C@H](CO)[C@@H](O)[C@H](O)[C@H]7O)[C@H]6O)C(C)(C)[C@@H]5CC[C@]43C)[C@@H]2[C@]1(C)O`, the result in experiment [1] and in experiment [2] was inactive.
`C[C@H]1[C@H](C)CC[C@]2(C(=O)O[C@@H]3O[C@H](CO)[C@@H](O)[C@H](O)[C@H]3O)CC[C@]3(C)C(=CC[C@@H]4[C@@]5(C)C[C@@H](O)[C@H](O[C@@H]6OC[C@H](O)[C@H](O)[C@H]6O)[C@@](C)(CO)[C@@H]5CC[C@]43C)[C@H]12`: the outcome in experiment [1] and in experiment [3] was inactive. Further, the inhibition in experiment [2] was found to be 35.5%.
For `CC1(C)CC[C@]2(C(=O)O[C@@H]3O[C@H](CO)[C@@H](O)[C@H](O)[C@H]3O)CC[C@]3(C)C(=CC[C@@H]4[C@@]5(C)CC[C@H](O[C@H]6O[C@@H](C(=O)O)[C@H](O)[C@@H](O)[C@@H]6O)[C@@](C)(CO)[C@@H]5CC[C@]43C)[C@@H]2C1`, the inhibition in experiment [1] worked out at 36.5%; in experiment [2], 64.3%; in experiment [3], 15.7%.
As for `C[C@H]1[C@H](C)CC[C@]2(C(=O)O[C@@H]3O[C@H](CO)[C@@H](O)[C@H](O)[C@H]3O)CC[C@]3(C)C(=CC[C@@H]4[C@@]5(C)CC[C@H](O[C@H]6O[C@@H](C(=O)O)[C@H](O)[C@@H](O)[C@@H]6O)[C@@](C)(CO)[C@@H]5CC[C@]43C)[C@H]12`, the figures for the inhibition in experiment [1] and in experiment [2] were 29% and 63.9%, respectively.
With `C=C1CC[C@]2(C(=O)O[C@@H]3O[C@H](CO)[C@@H](O)[C@H](O)[C@H]3O[C@@H]3O[C@@H](C)[C@H](O)[C@@H](O)[C@H]3O)CC[C@]3(C)C(=CC[C@@H]4[C@@]5(C)CC[C@H](O[C@@H]6OC[C@H](O)[C@H](O[C@@H]7O[C@H](CO)[C@@H](O)[C@H](O)[C@H]7O[C@@H]7O[C@H](CO)[C@@H](O)[C@H](O)[C@H]7O)[C@H]6O[C@@H]6O[C@@H](C)[C@H](O)[C@@H](O)[C@H]6O)C(C)(C)[C@@H]5CC[C@]43C)[C@@H]2[C@]1(C)O`, the result in experiment [1] was inactive. The compound further showed an inhibition in experiment [2] of 60%.
On to `C[C@@H]1O[C@@H](O[C@H]2[C@H](O[C@H]3CC[C@]4(C)[C@H]5CC=C6[C@@H]7[C@H](O)C(C)(C)CC[C@]7(C(=O)O[C@@H]7O[C@H](CO)[C@@H](O)[C@H](O)[C@H]7O)CC[C@@]6(C)[C@]5(C)CC[C@H]4C3(C)C)OC[C@H](O)[C@@H]2O[C@@H]2O[C@H](CO)[C@@H](O)[C@H](O)[C@H]2O)[C@H](O)[C@H](O)[C@H]1O`, for which the result in experiment [1] and in experiment [3] was inactive. The compound also had an inhibition in experiment [2] of 20%.
For `CC1(C)[C@@H](O[C@@H]2O[C@H](CO)[C@@H](O)[C@H](O)[C@H]2O[C@@H]2O[C@H](CO)[C@@H](O)[C@H](O)[C@H]2O)CC[C@]2(C)[C@H]3C[C@@H](O)C4=C5[C@]6(CC[C@](C)(OC6=O)[C@@]5(C)O)CC[C@@]4(C)[C@]3(C)CC[C@@H]12`, the result in experiment [1] and in experiment [3] was inactive. The inhibition in experiment [2] came out at 43%.

The values are drawn from ChEMBL document CHEMBL1144087, “Triterpenoid saponins from Ilex kudincha” (J Nat Prod, 1999).
